ChEMBL document CHEMBL1201862, “PubChem BioAssay data set” (2004)
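Following 48 hours of exposure in 96-well plates, responses at five concentrations were used to interpolate endpoints linearly. GI50 marks 50% less growth.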 Activity calls are given as the source filed them. No stated cut-off is given here; in the data, active = GI50 up to about 1.1 µM and inactive = higher.

Columns and labels:
Assay in all cases: growth of human tumour cells (NCI), 48 h
[1] = system: COLO 205
[2] = system: SK-MEL-28
[3] = system: UACC-257
[4] = system: HOP-62
[5] = system: SF-295
[6] = system: PC-3
[7] = system: IGROV-1
[8] = system: MDA-MB-435
[9] = system: HT-29
[10] = system: BT-549
[11] = system: NCI-H460
[12] = system: KM12
[13] = system: T47D
[14] = system: NCI-H23
[15] = system: SF-268
[16] = system: MDA-N
[17] = system: TK-10
[18] = system: SR
[19] = system: CCRF-CEM
[20] = system: SNB-75

SMILES | GI50 [1] | GI50 [2] | GI50 [3] | GI50 [4] | GI50 [5] | GI50 [6] | GI50 [7] | GI50 [8] | GI50 [9] | GI50 [10] | GI50 [11] | GI50 [12] | GI50 [13] | GI50 [14] | GI50 [15] | GI50 [16] | GI50 [17] | GI50 [18] | GI50 [19] | GI50 [20]
O=C1/C(=C\c2cccc(Oc3ccccc3)c2)S(=O)(=O)C(c2ccccc2)N1c1cccc(Cl)c1 (stereo not given) | 69.8 µM (inactive) | > 100 µM (inactive) | 74.6 µM (inactive) | 98.2 µM (inactive) | 39.4 µM (inactive) | > 100 µM (inactive) | 38.9 µM (inactive) | 38.5 µM (inactive) | 30.1 µM (inactive) | 45.8 µM (inactive) | 88.3 µM (inactive) | 58.1 µM (inactive) | 46.8 µM (inactive) | 51.4 µM (inactive) | 39.2 µM (inactive) | 25.9 µM (inactive) | > 100 µM (inactive) | 20.9 µM (inactive) | 11.1 µM (inactive) | > 100 µM (inactive)
Cc1nc(SCC(=O)Nc2ccccc2)c2sc(=S)n(-c3ccccc3)c2n1 | > 10 µM (inactive) | > 10 µM (inactive) | > 10 µM (inactive) | 8.71 µM (inactive) | > 10 µM (inactive) | > 10 µM (inactive) | > 10 µM (inactive) | > 10 µM (inactive) | > 10 µM (inactive) | > 10 µM (inactive) | > 10 µM (inactive) | > 10 µM (inactive) | > 10 µM (inactive) | > 10 µM (inactive) | > 10 µM (inactive) | > 10 µM (inactive) | > 10 µM (inactive) | > 10 µM (inactive) | > 10 µM (inactive) | 3.19 µM (inactive)
Clc1cc2nc(C3CCCCO3)[nH]c2cc1Cl (stereo not given) | 26 µM (inactive) | > 60.3 µM (inactive) | 59.2 µM (inactive) | 64.7 µM (inactive) | 38.6 µM (inactive) | 22.3 µM (inactive) | 24 µM (inactive) | 7.67 µM (inactive) | 3.5 µM (inactive) | 11.1 µM (inactive) | 18.6 µM (inactive) | 10.6 µM (inactive) | 14.3 µM (inactive) | 18 µM (inactive) | 27.9 µM (inactive) | 4.1 µM (inactive) | > 77.3 µM (inactive) | 4.49 µM (inactive) | 35.3 µM (inactive) | 15.2 µM (inactive)
O=C(O)c1cccc(S(=O)(=O)NN2C(=O)CSC2c2ccccc2Cl)c1 (stereo not given) | > 100 µM (inactive) | > 100 µM (inactive) | > 100 µM (inactive) | > 100 µM (inactive) | > 100 µM (inactive) | > 100 µM (inactive) | > 100 µM (inactive) | > 100 µM (inactive) | > 100 µM (inactive) | > 100 µM (inactive) | > 100 µM (inactive) | > 100 µM (inactive) | > 100 µM (inactive) | > 100 µM (inactive) | > 100 µM (inactive) | > 100 µM (inactive) | > 100 µM (inactive) | 4.09 µM (inactive) | > 100 µM (inactive) | > 100 µM (inactive)
O=C(c1ccccc1)c1cc[n+](C2=C([N-]S(=O)(=O)c3ccccc3)C(=O)c3ccccc3C2=O)cc1 | 13.7 µM (inactive) | 3.22 µM (inactive) | 11.6 µM (inactive) | 10.6 µM (inactive) | 11.8 µM (inactive) | 11.1 µM (inactive) | 9.35 µM (inactive) | 1.72 µM (inactive) | 14.4 µM (inactive) | 6.76 µM (inactive) | 13.5 µM (inactive) | 12.6 µM (inactive) | 3.33 µM (inactive) | 3.12 µM (inactive) | 11.5 µM (inactive) | 1.86 µM (inactive) | 18.3 µM (inactive) | 3.08 µM (inactive) | 2.1 µM (inactive) | 11.6 µM (inactive)
CSc1nc(=O)c2nc(-c3cccs3)c(-c3cccs3)nc2n1C | > 100 µM (inactive) | 43.1 µM (inactive) | > 100 µM (inactive) | 20 µM (inactive) | 32.7 µM (inactive) | 40.9 µM (inactive) | 43.5 µM (inactive) | > 100 µM (inactive) | > 100 µM (inactive) | 34.5 µM (inactive) | > 100 µM (inactive) | > 100 µM (inactive) | 18.7 µM (inactive) | 55.8 µM (inactive) | 37.2 µM (inactive) | > 100 µM (inactive) | > 100 µM (inactive) | > 100 µM (inactive) | > 100 µM (inactive) | 18.7 µM (inactive)
CN(C)c1n/c(=N/Cc2ccco2)ss1 | 2.06 µM (inactive) | 11.6 µM (inactive) | 46.5 µM (inactive) | 24.9 µM (inactive) | 37.2 µM (inactive) | 15.5 µM (inactive) | > 54.8 µM (inactive) | 20.5 µM (inactive) | 2.44 µM (inactive) | 18.6 µM (inactive) | 10.9 µM (inactive) | 3.72 µM (inactive) | 14.3 µM (inactive) | 25.6 µM (inactive) | 11.7 µM (inactive) | 16.6 µM (inactive) | 40 µM (inactive) | 0.521 µM (active) | 1.43 µM (inactive) | 20.5 µM (inactive)
c1csc(-c2cc(-c3ccsc3)cs2)c1 | > 100 µM (inactive) | > 100 µM (inactive) | > 100 µM (inactive) | 29.9 µM (inactive) | 32.1 µM (inactive) | > 100 µM (inactive) | 45.2 µM (inactive) | > 100 µM (inactive) | 41.4 µM (inactive) | > 100 µM (inactive) | > 100 µM (inactive) | > 100 µM (inactive) | > 100 µM (inactive) | 14.9 µM (inactive) | > 100 µM (inactive) | > 100 µM (inactive) | > 100 µM (inactive) | 14.4 µM (inactive) | > 100 µM (inactive) | > 100 µM (inactive)
O=C1CC2SC(COCc3ccccc3)(CCN2Cc2ccccc2)C1 (stereo not given) | 39.1 µM (inactive) | > 100 µM (inactive) | 37.1 µM (inactive) | > 100 µM (inactive) | 61.2 µM (inactive) | 35 µM (inactive) | > 100 µM (inactive) | 51.6 µM (inactive) | 31.6 µM (inactive) | 51.1 µM (inactive) | 54.6 µM (inactive) | 52.2 µM (inactive) | 54.6 µM (inactive) | 43.9 µM (inactive) | > 100 µM (inactive) | 71.4 µM (inactive) | 19.9 µM (inactive) | 35.2 µM (inactive) | 65 µM (inactive) | > 100 µM (inactive)
CC(C)OC(=O)C(NC(=O)C(CC(=O)OCc1ccccc1)NC(=O)OCc1ccccc1)NC(=O)C1C(C)(C)CCC1(C)C (stereo not given) | 2.99 µM (inactive) | > 42 µM (inactive) | 30.3 µM (inactive) | 6.56 µM (inactive) | 14.1 µM (inactive) | 2.8 µM (inactive) | 13.7 µM (inactive) | 23.8 µM (inactive) | 3.58 µM (inactive) | 17.4 µM (inactive) | 16.7 µM (inactive) | 9.02 µM (inactive) | 26.5 µM (inactive) | 10.2 µM (inactive) | 15 µM (inactive) | 10.1 µM (inactive) | 18.8 µM (inactive) | 2.64 µM (inactive) | 3.18 µM (inactive) | 2.68 µM (inactive)
